Measurements reported in PubChem BioAssay (NCI).
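Dose response: 5 concentrations. Exposure: 48 h. Format: 96-well plates. Endpoint: linear interpolation; highest concentration if not reached. GI50 marks 50% less growth. At the TGI there is no net growth.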

What was measured:
Experiment in all cases: inhibition of tumour cell growth, NCI panel, 48 h
SW-620 colon = system: SW-620 colon
K-562 leukemia = system: K-562 leukemia
NCI-H460 lung = system: NCI-H460 lung
MOLT-4 leukemia = system: MOLT-4 leukemia
U251 CNS = system: U251 CNS
IGROV1 ovarian = system: IGROV1 ovarian
HS 578T breast = system: HS 578T breast
OVCAR-4 ovarian = system: OVCAR-4 ovarian
SK-OV-3 ovarian = system: SK-OV-3 ovarian
SF-268 CNS = system: SF-268 CNS
HCT-116 colon = system: HCT-116 colon
EKVX NSCLC = system: EKVX NSCLC
786-0 renal = system: 786-0 renal
MCF7 breast = system: MCF7 breast
COLO 205 colon = system: COLO 205 colon
SN12C renal = system: SN12C renal
UO-31 renal = system: UO-31 renal
DU-145 prostate = system: DU-145 prostate
OVCAR-5 ovarian = system: OVCAR-5 ovarian
SK-MEL-28 melanoma = system: SK-MEL-28 melanoma
CAKI-1 renal = system: CAKI-1 renal
T-47D breast = system: T-47D breast
SNB-19 CNS = system: SNB-19 CNS
SF-539 CNS = system: SF-539 CNS
SK-MEL-5 melanoma = system: SK-MEL-5 melanoma
UACC-62 melanoma = system: UACC-62 melanoma
MDA-MB-231 breast = system: MDA-MB-231 breast
NCI-H226 lung = system: NCI-H226 lung
HOP-62 NSCLC = system: HOP-62 NSCLC
A498 renal = system: A498 renal
OVCAR-3 ovarian = system: OVCAR-3 ovarian
SF-295 CNS = system: SF-295 CNS
M14 melanoma = system: M14 melanoma
RPMI-8226 leukemia = system: RPMI-8226 leukemia
HCT-15 colon = system: HCT-15 colon
A549 NSCLC = system: A549 NSCLC
KM12 colon = system: KM12 colon
MALME-3M melanoma = system: MALME-3M melanoma
NCI-H522 lung = system: NCI-H522 lung
SK-MEL-2 melanoma = system: SK-MEL-2 melanoma
MDA-MB-435 = system: MDA-MB-435
HL-60(TB) leukemia = system: HL-60(TB) leukemia
UACC-257 melanoma = system: UACC-257 melanoma
NCI/ADR-RES ovarian = system: NCI/ADR-RES ovarian
PC-3 prostate = system: PC-3 prostate
HT29 colon = system: HT29 colon
RXF 393 renal = system: RXF 393 renal
ACHN renal = system: ACHN renal
SR leukemia = system: SR leukemia
BT-549 breast = system: BT-549 breast
LOX IMVI melanoma = system: LOX IMVI melanoma
CCRF-CEM leukemia = system: CCRF-CEM leukemia
HCC-2998 colon = system: HCC-2998 colon
TK-10 renal = system: TK-10 renal
OVCAR-8 ovarian = system: OVCAR-8 ovarian
SNB-75 CNS = system: SNB-75 CNS
HOP-92 NSCLC = system: HOP-92 NSCLC
NCI-H23 lung = system: NCI-H23 lung

With CN(C)c1ccc(/C=C/C(=O)c2ccc(O)cc2)cc1 the TGI (SW-620 colon) was greater than 100 µM, the TGI (K-562 leukemia) was 8.38 µM and the TGI (NCI-H460 lung) was 22.8 µM. It also gave a TGI (MOLT-4 leukemia) of 21 µM, a TGI (U251 CNS) greater than 42 µM and a TGI (IGROV1 ovarian) greater than 100 µM. The TGI (HS 578T breast) was greater than 69.7 µM, the TGI (OVCAR-4 ovarian) was greater than 100 µM and the TGI (SK-OV-3 ovarian) was 61.9 µM. It also gave a TGI (SF-268 CNS) greater than 100 µM, a TGI (HCT-116 colon) greater than 68 µM and a TGI (EKVX NSCLC) greater than 100 µM. The TGI (786-0 renal) was greater than 78.3 µM, the TGI (MCF7 breast) was greater than 100 µM and the TGI (COLO 205 colon) was 26.6 µM. For the same molecule, the TGI (SN12C renal) was greater than 100 µM, the TGI (UO-31 renal) was greater than 100 µM and the TGI (DU-145 prostate) was 63.5 µM. For the same molecule, the TGI (OVCAR-5 ovarian) was greater than 100 µM, the TGI (SK-MEL-28 melanoma) was greater than 100 µM and the TGI (CAKI-1 renal) was greater than 100 µM. For the same molecule, the TGI (T-47D breast) was 57.6 µM, the TGI (SNB-19 CNS) was greater than 100 µM and the TGI (SF-539 CNS) was 13.5 µM. For the same molecule, the TGI (SK-MEL-5 melanoma) was 23.3 µM, the TGI (UACC-62 melanoma) was 19.3 µM and the TGI (MDA-MB-231 breast) was greater than 91.5 µM. It also gave a TGI (NCI-H226 lung) greater than 100 µM, a TGI (HOP-62 NSCLC) greater than 100 µM and a TGI (A498 renal) greater than 65.7 µM. The TGI (OVCAR-3 ovarian) was 9.37 µM, the TGI (SF-295 CNS) was greater than 41.6 µM and the TGI (M14 melanoma) was greater than 100 µM. It also gave a TGI (RPMI-8226 leukemia) of 22 µM, a TGI (HCT-15 colon) of 40.4 µM and a TGI (A549 NSCLC) greater than 100 µM. The TGI (KM12 colon) was greater than 100 µM, the TGI (MALME-3M melanoma) was 51 µM and the TGI (NCI-H522 lung) was 8.58 µM. The TGI (SK-MEL-2 melanoma) was greater than 49.1 µM, the TGI (MDA-MB-435) was 3.22 µM and the TGI (HL-60(TB) leukemia) was 5.57 µM. For the same molecule, the TGI (UACC-257 melanoma) was greater than 92.4 µM, the TGI (NCI/ADR-RES ovarian) was greater than 40.6 µM and the TGI (PC-3 prostate) was 63.2 µM. It also gave a TGI (HT29 colon) of 29.9 µM, a TGI (RXF 393 renal) greater than 100 µM and a TGI (ACHN renal) of 61.3 µM. It also gave a TGI (SR leukemia) of 3.02 µM, a TGI (BT-549 breast) greater than 59 µM and a TGI (LOX IMVI melanoma) of 45.1 µM. It also gave a TGI (CCRF-CEM leukemia) of 17.4 µM, a TGI (HCC-2998 colon) of 38.1 µM and a TGI (TK-10 renal) greater than 100 µM. For the same molecule, the TGI (OVCAR-8 ovarian) was greater than 100 µM, the TGI (SNB-75 CNS) was greater than 42.7 µM and the TGI (HOP-92 NSCLC) was greater than 100 µM. The TGI (NCI-H23 lung) was greater than 100 µM.

CN=C(N)c1ccc(N=C(N)c2ccc(-c3ccc(C(N)=Nc4ccc(C(N)=NC)cc4)cc3)cc2)cc1 gave a GI50 (SW-620 colon) greater than 100 µM, a TGI (SW-620 colon) greater than 100 µM and a GI50 (K-562 leukemia) of 89.5 µM. For the same molecule, the TGI (K-562 leukemia) was greater than 100 µM, the GI50 (NCI-H460 lung) was 55.8 µM and the TGI (NCI-H460 lung) was greater than 100 µM. It also gave a GI50 (MOLT-4 leukemia) greater than 100 µM, a TGI (MOLT-4 leukemia) greater than 100 µM and a GI50 (U251 CNS) of 55.5 µM. It also gave a TGI (U251 CNS) greater than 100 µM, a GI50 (IGROV1 ovarian) of 38.6 µM and a TGI (IGROV1 ovarian) greater than 100 µM. It also gave a GI50 (HS 578T breast) greater than 100 µM, a TGI (HS 578T breast) greater than 100 µM and a GI50 (OVCAR-4 ovarian) greater than 100 µM. For the same molecule, the TGI (OVCAR-4 ovarian) was greater than 100 µM, the GI50 (SK-OV-3 ovarian) was greater than 100 µM and the TGI (SK-OV-3 ovarian) was greater than 100 µM. It also gave a GI50 (SF-268 CNS) greater than 100 µM, a TGI (SF-268 CNS) greater than 100 µM and a GI50 (HCT-116 colon) of 75.8 µM. For the same molecule, the TGI (HCT-116 colon) was greater than 100 µM, the GI50 (EKVX NSCLC) was greater than 100 µM and the TGI (EKVX NSCLC) was greater than 100 µM. For the same molecule, the GI50 (786-0 renal) was greater than 100 µM, the TGI (786-0 renal) was greater than 100 µM and the GI50 (MCF7 breast) was 19 µM. It also gave a TGI (MCF7 breast) greater than 100 µM, a GI50 (COLO 205 colon) of 99.5 µM and a TGI (COLO 205 colon) greater than 100 µM. For the same molecule, the GI50 (SN12C renal) was greater than 100 µM, the TGI (SN12C renal) was greater than 100 µM and the GI50 (UO-31 renal) was greater than 100 µM. For the same molecule, the TGI (UO-31 renal) was greater than 100 µM, the GI50 (DU-145 prostate) was 41.2 µM and the TGI (DU-145 prostate) was greater than 100 µM. The GI50 (OVCAR-5 ovarian) was greater than 100 µM, the TGI (OVCAR-5 ovarian) was greater than 100 µM and the GI50 (SK-MEL-28 melanoma) was 41.8 µM. It also gave a TGI (SK-MEL-28 melanoma) greater than 100 µM, a GI50 (CAKI-1 renal) greater than 100 µM and a TGI (CAKI-1 renal) greater than 100 µM. The GI50 (T-47D breast) was 58.2 µM, the TGI (T-47D breast) was greater than 100 µM and the GI50 (SNB-19 CNS) was greater than 100 µM. The TGI (SNB-19 CNS) was greater than 100 µM, the GI50 (SF-539 CNS) was greater than 100 µM and the TGI (SF-539 CNS) was greater than 100 µM. It also gave a GI50 (SK-MEL-5 melanoma) of 33.6 µM, a TGI (SK-MEL-5 melanoma) greater than 100 µM and a GI50 (UACC-62 melanoma) of 30.5 µM. The TGI (UACC-62 melanoma) was greater than 100 µM, the GI50 (MDA-MB-231 breast) was greater than 100 µM and the TGI (MDA-MB-231 breast) was greater than 100 µM. It also gave a GI50 (NCI-H226 lung) of 55.9 µM, a TGI (NCI-H226 lung) greater than 100 µM and a GI50 (HOP-62 NSCLC) greater than 100 µM. For the same molecule, the TGI (HOP-62 NSCLC) was greater than 100 µM, the GI50 (A498 renal) was greater than 100 µM and the TGI (A498 renal) was greater than 100 µM. For the same molecule, the GI50 (OVCAR-3 ovarian) was greater than 100 µM, the TGI (OVCAR-3 ovarian) was greater than 100 µM and the GI50 (SF-295 CNS) was 41.1 µM. It also gave a TGI (SF-295 CNS) greater than 100 µM, a GI50 (M14 melanoma) of 82.2 µM and a TGI (M14 melanoma) greater than 100 µM. The GI50 (RPMI-8226 leukemia) was 46.5 µM, the TGI (RPMI-8226 leukemia) was greater than 100 µM and the GI50 (HCT-15 colon) was greater than 100 µM. The TGI (HCT-15 colon) was greater than 100 µM, the GI50 (A549 NSCLC) was greater than 100 µM and the TGI (A549 NSCLC) was greater than 100 µM. It also gave a GI50 (KM12 colon) of 61.9 µM, a TGI (KM12 colon) greater than 100 µM and a GI50 (MALME-3M melanoma) of 25.5 µM. It also gave a TGI (MALME-3M melanoma) of 78.7 µM, a GI50 (NCI-H522 lung) of 18.4 µM and a TGI (NCI-H522 lung) greater than 100 µM. It also gave a GI50 (SK-MEL-2 melanoma) of 35.1 µM, a TGI (SK-MEL-2 melanoma) greater than 100 µM and a GI50 (MDA-MB-435) of 59.2 µM. It also gave a TGI (MDA-MB-435) greater than 100 µM, a GI50 (HL-60(TB) leukemia) of 58.3 µM and a TGI (HL-60(TB) leukemia) greater than 100 µM. For the same molecule, the GI50 (UACC-257 melanoma) was greater than 100 µM, the TGI (UACC-257 melanoma) was greater than 100 µM and the GI50 (NCI/ADR-RES ovarian) was greater than 100 µM. The TGI (NCI/ADR-RES ovarian) was greater than 100 µM, the GI50 (PC-3 prostate) was greater than 100 µM and the TGI (PC-3 prostate) was greater than 100 µM. The GI50 (HT29 colon) was 62.8 µM, the TGI (HT29 colon) was greater than 100 µM and the GI50 (RXF 393 renal) was 39.4 µM. For the same molecule, the TGI (RXF 393 renal) was greater than 100 µM, the GI50 (ACHN renal) was greater than 100 µM and the TGI (ACHN renal) was greater than 100 µM. For the same molecule, the GI50 (SR leukemia) was greater than 100 µM, the TGI (SR leukemia) was greater than 100 µM and the GI50 (BT-549 breast) was greater than 100 µM. For the same molecule, the TGI (BT-549 breast) was greater than 100 µM, the GI50 (LOX IMVI melanoma) was 83 µM and the TGI (LOX IMVI melanoma) was greater than 100 µM. The GI50 (CCRF-CEM leukemia) was greater than 100 µM, the TGI (CCRF-CEM leukemia) was greater than 100 µM and the GI50 (HCC-2998 colon) was greater than 100 µM. It also gave a TGI (HCC-2998 colon) greater than 100 µM, a GI50 (TK-10 renal) of 35.9 µM and a TGI (TK-10 renal) of 97.1 µM. It also gave a GI50 (OVCAR-8 ovarian) of 52.1 µM, a TGI (OVCAR-8 ovarian) greater than 100 µM and a GI50 (SNB-75 CNS) greater than 100 µM. The TGI (SNB-75 CNS) was greater than 100 µM, the GI50 (HOP-92 NSCLC) was 84.5 µM and the TGI (HOP-92 NSCLC) was greater than 100 µM. For the same molecule, the GI50 (NCI-H23 lung) was greater than 100 µM and the TGI (NCI-H23 lung) was greater than 100 µM.
